Experimental data from ChEMBL document CHEMBL4311992, “Discovery of 3-(((9H-purin-6-yl)amino)methyl)-4,6-dimethylpyridin-2(1H)-one derivatives as novel tubulin polymerization inhibitors for treatment of cancer” (Eur J Med Chem, 2019).
Active and inactive are the calls of the source. The calls are words filed in the database; no cut-off is given here.

Assays:
[1] = target: G protein-coupled receptor kinase 3 (Homo sapiens) (UniProt P35626); experiment: Inhibition of recombinant full-length human GRK3 assessed as residual activity at 10 uM using casein as substrate measured after 40 mins in presence of [gamma33P]ATP by scintillation counting method
HCT-116 [2] = experiment: Induction of apoptosis in human HCT116 cells assessed as late apoptotic cells at 100 nM measured after 48 hrs by Annexin V-FITC/propidium iodide staining-based flow cytometry (reference value: 3.87%); type: functional
[3] = test system: Fibroblast growth factor receptor 1 (Homo sapiens), P11362 [V561M]; experiment: Inhibition of recombinant human FGFR1 V561M mutant (456 to 765 residues) assessed as residual activity at 10 uM using GGEEEEYFELVKKKK as substrate measured after 40 mins in presence of [gamma33P]ATP by scintillation counting method
[4] = target: Ephrin type-A receptor 3 (Homo sapiens) (UniProt P29320); experiment: Inhibition of recombinant human EphA3 (578 to end residues) assessed as residual activity at 10 uM using poly(Glu, Tyr) 4:1 as substrate measured after 40 mins in presence of [gamma33P]ATP by scintillation counting method
SW-620 = experiment: Induction of apoptosis in human SW620 cells assessed as decrease in Bcl2 expression up to 200 nM measured after 48 hrs by Western blot analysis; type: functional, cell-based
[5] = target: Serine/threonine-protein kinase 16 (Homo sapiens) (UniProt O75716); experiment: Inhibition of human STK16 assessed as residual activity at 10 uM by radiometric method
SW480 = experiment: Antiproliferative activity against human SW480 cells assessed as reduction in cell viability after 72 hrs by MTT assay; type: functional, cell-based; details: SW480, 72 h
[6] = target: CDK6/cyclin D3 (Homo sapiens) (UniProt P30281+Q00534); experiment: Inhibition of recombinant full-length human CDK6/cyclin D3 assessed as residual activity at 10 uM using histone H1 as substrate measured after 40 mins in presence of [gamma33P]ATP by scintillation counting method; type: protein-complex assay
[7] = test system: Mast/stem cell growth factor receptor Kit (Homo sapiens), P10721 [V654A]; experiment: Inhibition of recombinant human c-Kit V654A mutant (544 to end residues) assessed as residual activity at 10 uM using GGMEDIYFEFMGGKKK as substrate measured after 40 mins in presence of [gamma33P]ATP by scintillation counting method
[8] = target: SRSF protein kinase 3 (Homo sapiens) (UniProt Q9UPE1); experiment: Inhibition of recombinant full-length human MSSK1 assessed as residual activity at 10 uM using ERMRPRKRQGSVRRRV as substrate measured after 40 mins in presence of [gamma33P]ATP by scintillation counting method
HCT-116 [9] = experiment: Antitumor activity against human HCT116 cells xenografted in nude BALB/c mouse assessed as reduction in tumor weight at 80 mg/kg, po administered once daily for 4 weeks measured every 3 days during compound dosing; type: functional, organism-based
[10] = test system: Tyrosine-protein kinase ABL1 (Homo sapiens), P00519 [Y253F]; experiment: Inhibition of recombinant human ABL Y253F mutant (27 to end residues) assessed as residual activity at 10 uM using EAIYAAPFAKKK as substrate measured after 40 mins in presence of [gamma33P]ATP by scintillation counting method
[11] = test system: Serine/threonine-protein kinase Chk2 (Homo sapiens), O96017 [R145W]; experiment: Inhibition of recombinant human CHK2 R145W mutant (5 to end residues) assessed as residual activity at 10 uM using KKKVSRSGLYRSPSMPENLNRPR as substrate measured after 40 mins in presence of [gamma33P]ATP by scintillation counting method
[12] = target: Cyclin-dependent kinase 13/Cyclin-K (Homo sapiens) (UniProt Q14004+O75909); experiment: Inhibition of recombinant full length human CDK13/cyclinK assessed as residual activity at 10 uM using RSRSRSRSRSRSRSR as substrate measured after 120 mins in presence of [gamma33P]ATP by scintillation counting method; type: protein-complex assay
HCT-116 [13] = experiment: Induction of apoptosis in human HCT116 cells assessed as viable cells at 50 nM measured after 48 hrs by Annexin V-FITC/propidium iodide staining-based flow cytometry (reference value: 94.5%); type: functional; details: HCT-116, 48 h, read-out: Activity
[14] = test system: Mitogen-activated protein kinase 14 (Homo sapiens), Q16539 [T106M]; experiment: Inhibition of recombinant full-length human SAPK2a T106M mutant assessed as residual activity at 10 uM using myelin basic protein as substrate measured after 40 mins in presence of [gamma33P]ATP by scintillation counting method
[15] = target: ALK tyrosine kinase receptor (Homo sapiens) (UniProt Q9UM73); experiment: Inhibition of recombinant human ALK (1058 to end residues) assessed as residual activity at 10 uM using KKKSPGEYVNIEF as substrate measured after 40 mins in presence of [gamma33P]ATP by scintillation counting method
[16] = target: Casein kinase I (Homo sapiens) (UniProt Q9HCP0+P78368+P48730+P49674+P48729); experiment: Inhibition of CK1 (unknown origin) assessed as residual activity at 10 uM; type: protein assay
[17] = target: Protein kinase C iota type (Homo sapiens) (UniProt P41743); experiment: Inhibition of recombinant full-length human PKCiota assessed as residual activity at 10 uM using ERMRPRKRQGSVRRRV as substrate measured after 40 mins in presence of [gamma33P]ATP by scintillation counting method
Homo sapiens = species on record: Homo sapiens; experiment: Inhibition of recombinant human PRAK R291E mutant assessed as residual activity at 10 uM using KKLRRTLSVA as substrate measured after 40 mins in presence of [gamma33P]ATP by scintillation counting method
[18] = target: G protein-coupled receptor kinase 3 (Homo sapiens) (UniProt P35626); experiment: Inhibition of recombinant full-length human GRK5 assessed as residual activity at 10 uM using casein as substrate measured after 40 mins in presence of [gamma33P]ATP by scintillation counting method
[19] = target: Mast/stem cell growth factor receptor Kit (Homo sapiens) (UniProt P10721); experiment: Inhibition of recombinant human c-Kit (544 to end residues) assessed as residual activity at 10 uM using poly(Glu, Tyr) 4:1 as substrate measured after 40 mins in presence of [gamma33P]ATP by scintillation counting method
[20] = target: Serine/threonine-protein kinase ULK2 (Homo sapiens) (UniProt Q8IYT8); experiment: Inhibition of human ULK2 (1 to 306 residues) using casein as substrate measured after 40 mins in presence of [gamma33P]ATP by scintillation counting method; parameters: scale not given: the % may be the effect or the level left
[21] = target: Serine/threonine-protein kinase PLK3 (Homo sapiens) (UniProt Q9H4B4); experiment: Inhibition of recombinant human Plk3 (19 to 301 residues) assessed as residual activity at 10 uM using casein as substrate measured after 40 mins in presence of [gamma33P]ATP by scintillation counting method
HCT-116 [22] = experiment: Cell cycle arrest in human HCT116 cells assessed as up regulation of cdc25 expression up to 150 nM after 24 hrs by Western blot analysis; type: functional, cell-based

G protein-coupled receptor kinase 3 (Homo sapiens), sequence (P35626 whole entry): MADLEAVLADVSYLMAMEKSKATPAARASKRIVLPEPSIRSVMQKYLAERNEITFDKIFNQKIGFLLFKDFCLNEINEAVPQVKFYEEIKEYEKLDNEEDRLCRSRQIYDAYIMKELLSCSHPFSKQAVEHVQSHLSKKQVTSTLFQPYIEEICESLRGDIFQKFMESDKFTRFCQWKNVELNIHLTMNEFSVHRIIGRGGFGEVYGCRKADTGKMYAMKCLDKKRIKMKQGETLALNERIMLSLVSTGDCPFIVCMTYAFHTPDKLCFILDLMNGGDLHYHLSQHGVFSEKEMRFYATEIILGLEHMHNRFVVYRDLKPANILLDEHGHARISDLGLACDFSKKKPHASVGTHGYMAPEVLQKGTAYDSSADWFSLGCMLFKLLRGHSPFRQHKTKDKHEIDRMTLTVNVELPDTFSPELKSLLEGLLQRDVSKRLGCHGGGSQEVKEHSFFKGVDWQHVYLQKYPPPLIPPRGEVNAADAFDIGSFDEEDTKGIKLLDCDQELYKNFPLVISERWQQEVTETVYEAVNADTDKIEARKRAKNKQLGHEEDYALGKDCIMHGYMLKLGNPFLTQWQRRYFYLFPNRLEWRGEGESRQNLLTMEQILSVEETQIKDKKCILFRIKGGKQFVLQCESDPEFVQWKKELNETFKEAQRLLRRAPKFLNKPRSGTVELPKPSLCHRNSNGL
Serine/threonine-protein kinase Chk2 (Homo sapiens), O96017 [R145W], sequence (O96017 whole entry R145W): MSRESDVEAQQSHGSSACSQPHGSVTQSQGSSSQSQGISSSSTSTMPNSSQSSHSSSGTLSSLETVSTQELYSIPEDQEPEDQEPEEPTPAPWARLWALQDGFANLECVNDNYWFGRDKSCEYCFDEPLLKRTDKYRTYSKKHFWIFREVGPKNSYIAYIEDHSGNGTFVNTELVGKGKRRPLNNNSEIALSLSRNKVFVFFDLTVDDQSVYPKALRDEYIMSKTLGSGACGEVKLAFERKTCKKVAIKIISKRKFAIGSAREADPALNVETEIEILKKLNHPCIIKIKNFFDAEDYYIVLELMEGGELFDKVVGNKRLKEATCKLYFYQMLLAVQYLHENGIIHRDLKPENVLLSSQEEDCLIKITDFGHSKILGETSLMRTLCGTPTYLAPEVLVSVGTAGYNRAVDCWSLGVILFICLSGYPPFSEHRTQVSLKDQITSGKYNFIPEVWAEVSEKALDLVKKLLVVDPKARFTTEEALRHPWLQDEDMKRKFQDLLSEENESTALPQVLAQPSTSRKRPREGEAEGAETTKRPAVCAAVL
Cyclin-dependent kinase 13/Cyclin-K (Homo sapiens), sequence (O75909 whole entry, looked up): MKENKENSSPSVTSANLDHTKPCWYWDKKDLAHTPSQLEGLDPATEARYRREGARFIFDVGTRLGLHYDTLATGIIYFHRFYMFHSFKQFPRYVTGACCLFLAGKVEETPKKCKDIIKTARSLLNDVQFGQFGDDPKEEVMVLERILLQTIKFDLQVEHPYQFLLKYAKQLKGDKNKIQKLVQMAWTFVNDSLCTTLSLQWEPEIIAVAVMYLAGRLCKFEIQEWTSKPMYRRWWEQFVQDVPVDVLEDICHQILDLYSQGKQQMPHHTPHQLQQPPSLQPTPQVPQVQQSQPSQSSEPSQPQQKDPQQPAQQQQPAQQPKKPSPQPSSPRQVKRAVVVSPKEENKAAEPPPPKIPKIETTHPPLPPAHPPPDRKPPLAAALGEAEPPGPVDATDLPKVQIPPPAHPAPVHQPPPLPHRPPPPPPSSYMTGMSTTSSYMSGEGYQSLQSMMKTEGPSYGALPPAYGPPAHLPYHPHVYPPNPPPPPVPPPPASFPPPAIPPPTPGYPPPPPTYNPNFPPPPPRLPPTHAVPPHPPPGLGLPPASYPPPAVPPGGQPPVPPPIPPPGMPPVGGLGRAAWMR
Cyclin-dependent kinase 13/Cyclin-K (Homo sapiens), sequence (Q14004 whole entry, looked up): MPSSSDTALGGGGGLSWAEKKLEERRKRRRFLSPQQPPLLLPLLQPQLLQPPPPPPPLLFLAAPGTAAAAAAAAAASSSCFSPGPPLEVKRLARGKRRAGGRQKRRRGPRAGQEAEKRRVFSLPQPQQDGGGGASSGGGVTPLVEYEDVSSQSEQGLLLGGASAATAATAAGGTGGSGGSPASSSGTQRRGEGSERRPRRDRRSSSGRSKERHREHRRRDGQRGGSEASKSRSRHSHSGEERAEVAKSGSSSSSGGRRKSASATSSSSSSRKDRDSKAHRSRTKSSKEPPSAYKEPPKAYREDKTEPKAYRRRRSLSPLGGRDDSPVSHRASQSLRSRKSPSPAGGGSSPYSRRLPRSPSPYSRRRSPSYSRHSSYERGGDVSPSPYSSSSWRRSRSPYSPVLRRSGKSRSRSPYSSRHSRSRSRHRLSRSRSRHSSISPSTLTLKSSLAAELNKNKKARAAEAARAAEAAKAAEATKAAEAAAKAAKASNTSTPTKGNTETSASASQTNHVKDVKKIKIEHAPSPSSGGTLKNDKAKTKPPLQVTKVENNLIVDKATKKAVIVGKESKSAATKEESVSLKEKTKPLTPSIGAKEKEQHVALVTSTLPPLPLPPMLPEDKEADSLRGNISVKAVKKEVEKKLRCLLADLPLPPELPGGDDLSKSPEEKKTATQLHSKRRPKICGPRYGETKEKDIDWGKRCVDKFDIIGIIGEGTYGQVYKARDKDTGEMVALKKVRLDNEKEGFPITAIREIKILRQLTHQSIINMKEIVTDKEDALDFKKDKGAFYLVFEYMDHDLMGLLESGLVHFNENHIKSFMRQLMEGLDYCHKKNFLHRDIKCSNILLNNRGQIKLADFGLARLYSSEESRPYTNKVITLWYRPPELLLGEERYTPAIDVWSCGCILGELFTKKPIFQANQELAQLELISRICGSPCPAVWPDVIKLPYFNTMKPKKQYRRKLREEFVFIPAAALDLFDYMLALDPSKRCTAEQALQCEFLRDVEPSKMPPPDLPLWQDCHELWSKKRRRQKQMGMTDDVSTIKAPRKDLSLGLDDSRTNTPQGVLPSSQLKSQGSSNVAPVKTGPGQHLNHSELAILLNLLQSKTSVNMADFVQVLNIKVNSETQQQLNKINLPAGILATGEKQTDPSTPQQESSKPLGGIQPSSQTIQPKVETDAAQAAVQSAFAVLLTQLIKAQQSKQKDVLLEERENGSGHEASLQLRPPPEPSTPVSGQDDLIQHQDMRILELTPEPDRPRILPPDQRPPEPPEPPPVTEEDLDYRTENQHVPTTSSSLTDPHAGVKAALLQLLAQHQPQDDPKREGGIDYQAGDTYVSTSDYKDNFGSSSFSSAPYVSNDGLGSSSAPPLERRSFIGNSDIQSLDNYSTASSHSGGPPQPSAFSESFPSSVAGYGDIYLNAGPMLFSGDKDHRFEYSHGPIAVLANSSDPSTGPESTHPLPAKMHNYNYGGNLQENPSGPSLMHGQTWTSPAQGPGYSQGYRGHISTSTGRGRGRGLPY
Serine/threonine-protein kinase ULK2 (Homo sapiens), sequence (Q8IYT8 whole entry, the tested form may be a part): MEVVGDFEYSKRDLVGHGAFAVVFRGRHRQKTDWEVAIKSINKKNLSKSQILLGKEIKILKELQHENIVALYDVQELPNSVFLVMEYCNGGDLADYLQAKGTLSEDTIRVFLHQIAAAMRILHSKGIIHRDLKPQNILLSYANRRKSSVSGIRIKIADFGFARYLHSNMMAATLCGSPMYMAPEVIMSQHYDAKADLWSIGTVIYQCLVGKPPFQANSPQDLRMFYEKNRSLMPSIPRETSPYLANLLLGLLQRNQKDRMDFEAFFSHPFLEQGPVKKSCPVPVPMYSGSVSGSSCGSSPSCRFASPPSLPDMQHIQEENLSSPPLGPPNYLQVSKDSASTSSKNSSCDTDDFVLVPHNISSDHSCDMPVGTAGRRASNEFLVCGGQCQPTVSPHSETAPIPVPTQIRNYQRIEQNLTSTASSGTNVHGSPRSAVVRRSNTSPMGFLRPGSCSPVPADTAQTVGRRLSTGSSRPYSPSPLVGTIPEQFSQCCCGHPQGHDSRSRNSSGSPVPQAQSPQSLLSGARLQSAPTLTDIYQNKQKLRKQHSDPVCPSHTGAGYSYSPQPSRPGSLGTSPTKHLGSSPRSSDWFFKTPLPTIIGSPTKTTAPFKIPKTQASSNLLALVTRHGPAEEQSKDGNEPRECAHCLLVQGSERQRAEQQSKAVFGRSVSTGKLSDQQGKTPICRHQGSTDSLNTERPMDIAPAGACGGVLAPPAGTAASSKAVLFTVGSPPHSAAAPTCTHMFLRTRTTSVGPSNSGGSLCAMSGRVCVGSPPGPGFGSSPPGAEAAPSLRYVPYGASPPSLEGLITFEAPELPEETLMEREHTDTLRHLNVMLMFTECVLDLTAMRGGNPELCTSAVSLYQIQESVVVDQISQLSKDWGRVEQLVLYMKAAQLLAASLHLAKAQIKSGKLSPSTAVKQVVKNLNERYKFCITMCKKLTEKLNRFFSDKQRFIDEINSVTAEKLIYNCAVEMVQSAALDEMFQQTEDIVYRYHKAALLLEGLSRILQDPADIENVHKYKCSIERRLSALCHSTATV
Protein kinase C iota type (Homo sapiens), sequence (P41743 whole entry): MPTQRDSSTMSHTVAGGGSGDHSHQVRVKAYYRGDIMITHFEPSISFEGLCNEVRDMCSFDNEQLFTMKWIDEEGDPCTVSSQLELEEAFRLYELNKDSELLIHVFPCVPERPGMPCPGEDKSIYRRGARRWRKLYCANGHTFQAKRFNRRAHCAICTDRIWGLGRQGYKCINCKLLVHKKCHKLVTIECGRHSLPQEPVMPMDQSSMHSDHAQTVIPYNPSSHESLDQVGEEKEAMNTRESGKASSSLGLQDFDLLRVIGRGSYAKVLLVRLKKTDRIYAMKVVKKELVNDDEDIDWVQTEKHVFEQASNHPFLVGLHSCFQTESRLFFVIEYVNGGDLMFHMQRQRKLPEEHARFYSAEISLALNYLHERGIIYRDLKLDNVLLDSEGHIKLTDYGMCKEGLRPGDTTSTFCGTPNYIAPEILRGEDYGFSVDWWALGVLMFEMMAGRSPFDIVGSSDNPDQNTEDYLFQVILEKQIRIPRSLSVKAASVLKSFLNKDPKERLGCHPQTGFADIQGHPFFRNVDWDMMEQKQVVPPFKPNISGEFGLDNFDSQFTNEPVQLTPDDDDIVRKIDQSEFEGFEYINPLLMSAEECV

Cc1cc(C)c(CNc2nc(Cl)nc3c2ncn3C2CCCC2)c(=O)[nH]1
Activity [1]: 100%
Activity (HCT-116 [2]): 42.6%
Activity [3]: 95.5%
Activity [4]: 102%
Activity (SW-620): Active
Activity [5]: 102%
IC50 (SW480): 64.5 nM
Activity [6]: 98.5%
Activity [7]: 90%
Activity [8]: 130%
Activity (HCT-116 [9]): Active
Activity [10]: 109%
Activity [11]: 103%
Activity [12]: 97%
viability at 0.05 µM (HCT-116 [13]): 42.6%
Activity [14]: 100%
Activity [15]: 112%
Activity [16]: 106%
Activity [17]: 105%
Activity (Homo sapiens): 125%
Activity [18]: 105%
Activity [19]: 99.5%
Activity [20]: 103%
Activity [21]: 99.5%
Activity (HCT-116 [22]): Active
